Patent publication US20230052740A1, “MODULATORS OF CIRCADIAN RHYTHMS AND USES THEREOF” (The Regents of the University of California, priority 2019, published 2023)

Tests used:
hMT2 = assay: 2-[125I]-iodomelatonin competition binding, CHO cell membranes; conditions: in 2-[125I]-iodomelatonin binding assays
Procedure: For receptor binding studies, '7447 was dissolved in 50% DMSO/50% ethanol for 13 mM stock solution, diluted 1/10 in 100% ethanol then 1/10 again in 50% ethanol/50% Tris-HCl buffer. Both '3384 and '4226 were dissolved in 100% ethanol for 13 mM stock solutions and then diluted 1/10 in 50% ethanol/50% Tris-HCl buffer. Further dilutions were done in Tris-HCl buffer.
Assays were incubated for 1 hour at 25° C. Bound radioligand was separated from freeby rapidvacuum filtration using glass microfiber filters (Whatman, Krackeler Scientific, Inc., Albany N.Y., USA) saturated in 0.5% polyethylenimine solution.
Affinity shifts or lack thereof with G protein inactivation indicate apparent efficacy (Lefkowitz, R. J. et al., J Biol Chem 251, 4686-4692, 1976) as ligands are classified as agonists (ΔpKi% MLT>20%), antagonists (ΔpKi% MLT<20%, >−20%), or inverse agonists (ΔpKi% MLT<−20%) accordingly.

5HT2c = molecular target: T1, 5HT2c (Homo sapiens, UniProt P28335); assay: PRESTO-Tango GPCR-ome counter-screen, agonist mode; assay type: cell-based; conditions: arrestin recruitment Tango, in words
T1 construct: Tango fusion elements (printed only as 'PRESTO-Tango receptor DNAs'); expressed in transfected cells; host or cells: HTLA cells
T1 sequence (P28335 33-458): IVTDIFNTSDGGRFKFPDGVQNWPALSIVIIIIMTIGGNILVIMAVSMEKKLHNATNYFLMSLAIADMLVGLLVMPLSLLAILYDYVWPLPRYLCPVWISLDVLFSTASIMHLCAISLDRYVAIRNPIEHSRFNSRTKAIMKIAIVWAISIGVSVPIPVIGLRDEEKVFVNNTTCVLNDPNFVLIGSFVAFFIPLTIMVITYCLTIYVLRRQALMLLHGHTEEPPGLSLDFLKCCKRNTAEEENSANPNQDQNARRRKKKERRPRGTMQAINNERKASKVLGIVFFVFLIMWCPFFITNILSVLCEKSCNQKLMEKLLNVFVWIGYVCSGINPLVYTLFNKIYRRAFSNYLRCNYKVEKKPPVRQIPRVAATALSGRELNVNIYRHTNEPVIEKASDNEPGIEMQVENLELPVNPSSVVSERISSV
Procedure: Screening of compounds in the PRESTO-Tango GPCR-ome was accomplished as previously described (Kroeze, supra). with several modifications. First, HTLA cells were plated in DMEM with 10% FBS and 10 U/mL penicillin-streptomycin. Next, the cells were transfected using an in-plate PEI method (Longo, P. A. et al., Methods Enzymol 529, 227-240, 2013). PRESTO-Tango receptor DNAs were resuspended in OptiMEM and hybridized with PEI prior to dilution and distribution to 384-well plates and subsequent addition to cells. After overnight incubation, drugs were added to cells without replacement of the medium. The remaining steps of the PRESTO-Tango protocol were followed as previously described.

For `COc1ccc(Br)c(CNc2cccnc2)c1` [ZINC128734226], the MT2/MT1 selectivity (hMT2) was 54 and the “off-target agonist activity on 5HT2c” value (5HT2c) was “did have some activity on 5HT2c”.
